Source: PubChem BioAssay AID206 (DTP/NCI, 2004)
Values joined by “and” are separate entries in the source; they are usually repeats but may differ in a detail not shown here. Equal values may be shown once. Results filed as inconclusive are left out.

Test system: nude mice, HT29 intrarenal xenograft, tumor weight T/C
Experiment: NCI In Vivo Anticancer Drug Screen. Data for tumor model HT29;CX-1 Human Adenocarcinoma (MER+) (intrarenal inoculation) in NU/NU Swiss (nude) mice
Conditions: endpoint: mean tumor weight change, higher = larger tumour
Procedure, shortened: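 Mice with transplanted tumors are dosed with compound while controls get vehicle only. Survival or tumor burden is then assessed per group, and the treated value is expressed relative to control.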

[1] = dose: 300.0 mg/kg/injection, schedule: Q04DX004 (sc), vehicle: Klucel (hydroxypropylcellulose) (HPC)
[2] = dose: 600.0 mg/kg/injection, schedule: Q04DX004 (sc), vehicle: Klucel (hydroxypropylcellulose) (HPC)
[3] = dose: 1200.0 mg/kg/injection, schedule: Q04DX004 (sc), vehicle: Klucel (hydroxypropylcellulose) (HPC)

Compound: O=c1[nH]cc(F)c(=O)[nH]1
- T/C (dose: 6.25 mg/kg/injection, schedule: Q01DX010 (sc), vehicle: saline): 160 % of control
- T/C (dose: 12.5 mg/kg/injection, schedule: Q01DX010 (sc), vehicle: saline): 101 % of control
- T/C (dose: 20.0 mg/kg/injection, schedule: Q01DX010 (sc), vehicle: saline): 87 % of control and 107 % of control
- T/C (dose: 25.0 mg/kg/injection, schedule: Q01DX010 (sc), vehicle: saline): 86 % of control
- T/C (dose: 40.0 mg/kg/injection, schedule: Q01DX010 (sc), vehicle: saline): 46 % of control
- T/C (dose: 50.0 mg/kg/injection, schedule: Q04DX004 (ip), vehicle: saline): 34 % of control
- T/C (dose: 75.0 mg/kg/injection, schedule: Q04DX004 (ip), vehicle: saline): 23 % of control
- T/C (dose: 80.0 mg/kg/injection, schedule: Q01DX010 (sc), vehicle: saline): 59 % of control

Compound: CCCC(=O)OCc1cc(=O)n(C)c2c3c4c(cc12)c(C)cc(=O)n4CO3
- T/C (dose: 200.0 mg/kg/injection, schedule: Q01DX010 (sc), vehicle: Klucel (hydroxypropylcellulose) (HPC)): 71 % of control

Compound: Cc1cc(=NO)cc(C)n1O
- T/C (dose: 150.0 mg/kg/injection, schedule: Q04DX004 (sc), vehicle: distilled water + alcohol): 73 % of control
- T/C (dose: 300.0 mg/kg/injection, schedule: Q04DX004 (sc), vehicle: distilled water + alcohol): 80 % of control
- T/C (dose: 600.0 mg/kg/injection, schedule: Q04DX004 (sc), vehicle: distilled water + alcohol): 87 % of control
- T/C (dose: 1200.0 mg/kg/injection, schedule: Q04DX004 (sc), vehicle: distilled water + alcohol): 65 % of control

Compound: CCN=C=NCCCN(C)C
- T/C (dose: 25.0 mg/kg/injection, schedule: Q04DX004 (sc), vehicle: saline): 90 % of control
- T/C (dose: 50.0 mg/kg/injection, schedule: Q04DX004 (sc), vehicle: saline): 78 % of control
- T/C (dose: 100.0 mg/kg/injection, schedule: Q04DX004 (sc), vehicle: saline): 38 % of control

Compound: Nc1ncnc2c1ncn2C1OC(COP(=O)(O)O)C(O)C1O (stereo not given)
- T/C (dose: 100.0 mg/kg/injection, schedule: Q01DX010 (sc), vehicle: saline): 152 % of control
- T/C (dose: 200.0 mg/kg/injection, schedule: Q01DX010 (sc), vehicle: saline): 198 % of control
- T/C (dose: 400.0 mg/kg/injection, schedule: Q01DX010 (sc), vehicle: saline): 260 % of control
- T/C (dose: 800.0 mg/kg/injection, schedule: Q01DX010 (sc), vehicle: saline): 67 % of control

Compound: N#CC(=C1SCS1)[N+](=O)[O-]
- T/C (dose: 12.0 mg/kg/injection, schedule: Q04DX004 (sc), vehicle: saline): 22 % of control
- T/C (dose: 24.0 mg/kg/injection, schedule: Q04DX004 (sc), vehicle: saline): 154 % of control
- T/C (dose: 48.0 mg/kg/injection, schedule: Q04DX004 (sc), vehicle: saline): 32 % of control
- T/C (dose: 96.0 mg/kg/injection, schedule: Q04DX004 (sc), vehicle: saline): 45 % of control

Compound: CC(=O)OCC1OC([S-])C(OC(C)=O)C(OC(C)=O)C1OC(C)=O.CC[PH+](CC)CC.CC[PH+](CC)CC.[Au].[Au] (stereo not given)
- T/C (dose: 5.0 mg/kg/injection, schedule: Q04DX004 (sc), vehicle: Klucel (hydroxypropylcellulose) (HPC)): 177 % of control
- T/C (dose: 10.0 mg/kg/injection, schedule: Q04DX004 (sc), vehicle: Klucel (hydroxypropylcellulose) (HPC)): 113 % of control

Compound: CCCC(=O)Oc1ccc(/C=N/NC(N)=S)nc1
- T/C (dose: 100.0 mg/kg/injection, schedule: Q01DX010 (sc), vehicle: saline with Tween-80): 182 % of control
- T/C (dose: 200.0 mg/kg/injection, schedule: Q01DX010 (sc), vehicle: saline with Tween-80): 168 % of control

Compound: Nc1ncnc2c1ncn2C1C=C(CO)C(O)C1O (stereo not given)
- T/C (dose: 3.75 mg/kg/injection, schedule: Q04DX004 (sc), vehicle: saline): 76 % of control
- T/C (dose: 7.5 mg/kg/injection, schedule: Q04DX004 (sc), vehicle: saline): 103 % of control
- T/C (dose: 15.0 mg/kg/injection, schedule: Q04DX004 (sc), vehicle: saline): 81 % of control

Compound: [I][Hg][CH2]C1OCCOC1[CH2][Hg][I] (stereo not given)
- T/C [1]: 81 % of control
- T/C [2]: 104 % of control
- T/C [3]: 80 % of control
- T/C (dose: 2400.0 mg/kg/injection, schedule: Q04DX004 (sc), vehicle: Klucel (hydroxypropylcellulose) (HPC)): 73 % of control

Compound: COc1cc(C(=O)c2cc3c(cc2C)OCO3)cc(OC)c1OC
- T/C [1]: 83 % of control
- T/C [2]: 64 % of control
- T/C [3]: 82 % of control

Compound: CNC(=O)n1c(N)nc(-c2ccccc2)c1-c1ccccc1
- T/C (dose: 300.0 mg/kg/injection, schedule: Q04DX004 (sc), vehicle: saline with Tween-80): 92 % of control
- T/C (dose: 600.0 mg/kg/injection, schedule: Q04DX004 (sc), vehicle: saline with Tween-80): 38 % of control
